Common to all, as to format: cell-based
Assay [1] relates to MMP. As to the kind of experiment: UVB-induced MMP in fibroblasts, quantified (FIG. 5). The following applies: no UV about 3.5, UV alone about 6.0 ng/mL. As for the experimental part: (§1) The experiments are conducted under two kinds of conditions, wherein one uses phorbol 12-myristate 13-acetate (PMA) to induce skin-cells to produce MMP while the other uses UVB to induce skin-cells to produce MMP and the inhibitory effects of the green algae extract of the present invention on MMP produced under both conditions are tested.

The subject of assay [2] is MMP. The assay is described as follows: PMA-induced MMP production in fibroblasts, quantified (FIG. 1). Particulars: 5-hour incubation, control about 25, PMA alone about 70 ng/mL. As for the experimental part:
as §1
As known by those skilled in the art, PMA is an activator of protein kinase C (PKC) in fibroblasts, and PKC is an activator of MMP. Further, unduly activated MMP can break collagens as well as elastins in fibroblasts and in turn lead to aged skin. In the experiment shown in FIG. 1, Rectangle (1) belongs to a control group; Rectangle (2) belongs to a comparison group; and Rectangles (3), (4), (5) and (6) belong to an experimental group. A 5-hour incubation is conducted in each of the groups.

Assay [3] relates to MMP3. The assay is described as follows: PMA-induced gene expression in fibroblasts, RT-PCR (FIG. 4). Particulars: 100 nM PMA + 0.4 nM GM. An excerpt:
(§2) The […] inhibitor proteins TIMP1 and TIMP3 exist in fibroblasts to counterbalance metalloproteinases MMP1 and MMP3.

Assay [4] has as its system TIMP3. The description is as above. The following applies: 100 nM PMA + 0.4 nM GM.
Text: as §2

Assay [5] has as its system TIMP1. The description is as above. Particulars: 100 nM PMA + 0.4 nM GM.
Text: as §2

Assay [6] has as its system MMP. The assay is described as follows: PMA-induced MMP in fibroblasts, Western blotting (FIG. 2). Particulars: 100 nM PMA + 0.4 nM GM. The text has this: The images in the upper picture represent MMP expressions while the images in the lower picture are provided as a house keeping gene expressed protein.

In the case of `O=C1O[C@H]([C@@H](O)CO)C(O)=C1O` [Vitamin C], the figures for the “average content of MMP” value in assay [1] (0.15 mM Vitamin C added before 1.5 hours UV) and in assay [2] (100 nM PMA + 0.15 nM Vitamin C) were 9.0 ng/mL and “about 60 ng/mL”, respectively.
In the case of `CNC(=O)[C@H](Cc1c[nH]c2ccccc12)NC(=O)[C@@H](CC(=O)NO)CC(C)C` [GM], the “MMP3 mRNA expression (RT-PCR) compared with PMA alone” value in assay [3] was “less”. Moreover, in assay [4], the “TIMP3 genetic expression (RT-PCR) compared with PMA alone” value was “fails to significantly enhance”. Moreover, the “TIMP1 genetic expression (RT-PCR) compared with PMA alone” value in assay [5] is “fails to significantly enhance”. Besides, the “average content of MMP” value in assay [2] (100 nM PMA + 0.4 nM GM) was “about 50 ng/mL”. In assay [6], the “MMP activity (Western blot) compared with PMA alone” value was “slightly inhibits”.
In the case of Vitamin E, the “average content of MMP” value in assay [1] (25 uM Vitamin E added before 1.5 hours UV) is 6.0 ng/mL.
